27 compounds from patent US10927078B2, “Modulators of indoleamine 2,3-dioxygenase” (GLAXOSMITHKLINE INTELLECTUAL PROPERTY DEVELOPMENT LIMITED, priority 2017, dated 2021) can be followed below.

pIC50: −log10 of the molar value.

The target of one test is indoleamine 2, 3-dioxygenase (IDO1) (Homo sapiens, UniProt P14902). As to the kind of experiment: PBMC IDO1 assay (kynurenine via mass spectrometry). Format: cell-based.
Chain of indoleamine 2, 3-dioxygenase (IDO1) (P14902 whole entry): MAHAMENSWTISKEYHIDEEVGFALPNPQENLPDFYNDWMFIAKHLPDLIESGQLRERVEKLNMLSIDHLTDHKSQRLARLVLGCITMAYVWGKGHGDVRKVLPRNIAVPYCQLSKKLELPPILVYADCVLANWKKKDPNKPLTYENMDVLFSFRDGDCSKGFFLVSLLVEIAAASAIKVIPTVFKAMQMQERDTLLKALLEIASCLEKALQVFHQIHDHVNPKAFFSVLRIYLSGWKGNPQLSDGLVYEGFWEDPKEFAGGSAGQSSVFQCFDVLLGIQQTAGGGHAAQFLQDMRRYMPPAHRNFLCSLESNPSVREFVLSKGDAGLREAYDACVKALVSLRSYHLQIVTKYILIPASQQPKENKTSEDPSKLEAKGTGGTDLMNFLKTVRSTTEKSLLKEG
Settings: not given
On the procedure: Compounds of the present invention were tested via high-throughput cellular assays utilizing detection of kynurenine via mass spectrometry and cytotoxicity as end-points. For the mass spectrometry and cytotoxicity assays, human peripheral blood mononuclear cells (PBMC) (PB003F; AllCells®, Alameda, Calif.) were stimulated with human interferon-γ (IFN-γ) (Sigma-Aldrich Corporation, St. Louis, Mo.) and lipopolysaccharide from Salmonella minnesota (LPS) (Invivogen, San Diego, Calif.) to induce the expression of indoleamine 2, 3-dioxygenase (IDO1). Compounds with IDO1 inhibitory properties decreased the amount of kynurenine produced by the cells via the tryptophan catabolic pathway. Cellular toxicity due to the effect of compound treatment was measured using CellTiter-Glo® reagent (CTG) (Promega Corporation, Madison, Wis.), which is based on luminescent detection of ATP, an indicator of metabolically active cells.
In preparation for the assays, test compounds were serially diluted 3-fold in DMSO from a typical top concentration of 5 mM and plated at 0.5 μL in 384-well, polystyrene, clear bottom, tissue culture treated plates with lids (Greiner Bio-One, Kremsmünster, Austria) to generate 11-point dose response curves. Low control wells (0% kynurenine or 100% cytotoxicity) contained either 0.5 μL of DMSO in the presence of unstimulated (-IFN-γ/-LPS) PBMCs for the mass spectrometry assay or 0.5 μL of DMSO in the absence of cells for the cytotoxicity assay, and high control wells (100% kynurenine or 0% cytotoxicity) contained 0.5 μL of DMSO in the presence of stimulated (+IFN-γ/+LPS) PBMCs for both the mass spectrometry and cytotoxicity assays.
Frozen stocks of PBMCs were washed and recovered in RPMI 1640 medium (Thermo Fisher Scientific, Inc., Waltham, Mass.) supplemented with 10% v/v heat-inactivated fetal bovine serum (FBS) (Thermo Fisher Scientific, Inc., Waltham, Mass.), and 1× penicillin-streptomycin antibiotic solution (Thermo Fisher Scientific, Inc., Waltham, Mass.). The cells were diluted to 1,000,000 cells/mL in the supplemented RPMI 1640 medium. 50 μL of either the cell suspension, for the mass spectrometry assay, or medium alone, for the cytotoxicity assay, were added to the low control wells, on the previously prepared 384-well compound plates, resulting in 50,000 cells/well or 0 cells/well respectively. IFN-γ and LPS were added to the remaining cell suspension at final concentrations of 100 ng/ml and 50 ng/ml respectively, and 50 μL of the stimulated cells were added to all remaining wells on the 384-well compound plates. The plates, with lids, were then placed in a 37° C., 5% CO2 humidified incubator for 2 days.
Following incubation, the 384-well plates were removed from the incubator and allowed to equilibrate to room temperature for 30 minutes. For the cytotoxicity assay, CellTiter-Glo® was prepared according to the manufacturer's instructions, and 40 μL were added to each plate well. After a twenty minute incubation at room temperature, luminescence was read on an EnVision® Multilabel Reader (PerkinElmer Inc., Waltham, Mass.). For the mass spectrometry assay, 10 μL of supernatant from each well of the compound-treated plates were added to 40 μL of acetonitrile, containing 10 μM of an internal standard for normalization, in 384-well, polypropylene, V-bottom plates (Greiner Bio-One, Kremsmünster, Austria) to extract the organic analytes. Following centrifugation at 2000 rpm for 10 minutes, 10 μL from each well of the acetonitrile extraction plates were added to 90 μL of sterile, distilled H2O in 384-well, polypropylene, V-bottom plates for analysis of kynurenine and the internal standard on the RapidFire 300 (Agilent Technologies, Santa Clara, Calif.) and 4000 QTRAP MS (SCIEX, Framingham, Mass.). MS data were integrated using Agilent Technologies' RapidFire Integrator software, and data were normalized for analysis as a ratio of kynurenine to the internal standard. […]
As to `Cc1ncccc1OC(=O)N1CCC(C(CC(C)C)NC(=O)c2ccc(Cl)cc2)CC1` (stereo not drawn) [Example 6, 2-methylpyridin-3-yl 4-{1-[(4-chlorophenyl)formamido]-3-methylbutyl}piperidine-1-carboxylate], the pIC50 (commonly the IC50 on a negative log10 scale, so that one unit is a factor of ten) is 8.80.

With `CC(C)CC(NC(=O)c1ccc(Cl)cc1)C1CCN(C(=O)Oc2cccnc2C(C)C)CC1` (stereo not drawn) [Example 34, 2-(propan-2-yl)pyridin-3-yl 4-{1-[(4-chlorophenyl)formamido]-3-methylbutyl}piperidine-1-carboxylate], the pIC50 was 8.20.

Regarding `Cc1ccnc(C)c1OC(=O)N1CCC(C(CC(C)C)NC(=O)c2ccc(Cl)cc2)CC1` (stereo not drawn) [Example 3, 2,4-dimethylpyridin-3-yl 4-(1-(4-chlorobenzamido)-3-methylbutyl)piperidine-1-carboxylate], the pIC50 is 9.00.

The test is the same for the next values; noted with them: human PBMC stimulated with IFN-γ and LPS, 2 days, kynurenine by mass spectrometry; recorded as pIC50; read-out: PBMC PXC50_ (converted).
On to `O=C(NC(c1ccccc1)C1CCN(C(=O)Oc2ccccc2)CC1)c1ccc(C(F)(F)F)cc1` (stereo not drawn) [Example 73, phenyl 4-[phenyl({[4-(trifluoromethyl)phenyl]formamido})methyl]piperidine-1-carboxylate], for which the IC50 is 158 nM.

Turning to `CC(C)CC(NC(=O)c1ccc(F)cc1)C1CCN(C(=O)Oc2ccnc3ccccc23)CC1` (stereo not drawn) [Example 79, quinolin-4-yl 4-{1-[(4-fluorophenyl)formamido]-3-methylbutyl}piperidine-1-carboxylate], the IC50 was 316 nM.

In the case of `O=C(NC(c1ccncc1)C1CCN(C(=O)OC2CCCCC2)CC1)c1ccc(F)cc1` (stereo not drawn) [Example 100, cyclohexyl 4-{[(4-fluorophenyl)formamido](pyridin-4-yl)methyl}piperidine-1-carboxylate], the IC50 was 3160 nM.

With `COc1cccc(OC(=O)N2CCC(C(CC(C)C)NC(=O)c3ccc(F)cc3)CC2)c1` (stereo not drawn) [Example 54, 3-methoxyphenyl 4-{1-[(4-fluorophenyl)formamido]-3-methylbutyl}piperidine-1-carboxylate], the IC50 is 20 nM.

Consider `CC(C)C[C@@H](NC(=O)c1ccc(Cl)cc1)C1CCN(C(=O)Oc2ccccc2)CC1` [Example 21, phenyl 4-[(1R)-1-[(4-chlorophenyl)formamido]-3-methylbutyl]piperidine-1-carboxylate], for which the IC50 is 3.98 nM.

With `CC(C)CC(NC(=O)c1ccc(F)cc1)C1CCN(C(=O)Oc2cccc(F)c2C#N)CC1` (stereo not drawn) [Example 12, 2-cyano-3-fluorophenyl 4-{1-[(4-fluorophenyl)formamido]-3-methylbutyl}piperidine-1-carboxylate], the IC50 was 2.51 nM.

With `CC(C)(C)OC(=O)N1CCC(C(NC(=O)c2cccc3cc[nH]c23)c2ccccc2)CC1` (stereo not drawn) [Example 85, tert-butyl 4-{[(1H-indol-7-yl)formamido](phenyl)methyl}piperidine-1-carboxylate], the IC50 is 631 nM.

As to `CC(C)C[C@@H](NC(=O)c1ccc(Cl)s1)C1CCN(C(=O)Oc2ccccc2)CC1` [Example 8, phenyl 4-[(1R)-1-[(5-chlorothiophen-2-yl)formamido]-3-methylbutyl]piperidine-1-carboxylate], the IC50 was 2 nM.

Consider `Cc1nccc(OC(=O)N2CCC([C@H](NC(=O)c3ccc(Cl)s3)C3CC3)CC2)c1C` [Example 7, 2,3-dimethylpyridin-4-yl 4-[(R)-[(5-chlorothiophen-2-yl)formamido](cyclopropyl)methyl]piperidine-1-carboxylate], for which the IC50 is 2 nM.

Turning to `CC(C)CC(NC(=O)c1ccc(F)cc1)C1CCN(C(=O)Oc2ccc(F)cc2)CC1` (stereo not drawn) [Example 50, 4-fluorophenyl 4-{1-[(4-fluorophenyl)formamido]-3-methylbutyl}piperidine-1-carboxylate], the IC50 was 12.6 nM.

As to `Cc1nccc(OC(=O)N2CCC(C(CC(C)C)NC(=O)c3ccc(Cl)cc3)CC2)c1C` (stereo not drawn) [Example 35, 2,3-dimethylpyridin-4-yl 4-{1-[(4-chlorophenyl)formamido]-3-methylbutyl}piperidine-1-carboxylate], the IC50 is 6.31 nM.

Consider `CC(C)(C)OC(=O)N1CCC(C(NC(=O)c2cccnc2)c2ccccc2)CC1` (stereo not drawn) [Example 102, tert-butyl 4-{phenyl[(pyridin-3-yl)formamido]methyl}piperidine-1-carboxylate], for which the IC50 was 5010 nM.

As for `O=C(N[C@@H](C1CC1)C1CCN(C(=O)Oc2ccccc2)CC1)c1ccc(Cl)s1` [Example 91, phenyl 4-[(S)-[(5-chlorothiophen-2-yl)formamido](cyclopropyl)methyl]piperidine-1-carboxylate], the IC50 is 631 nM.

Regarding `CC(C)C[C@@H](NC(=O)c1cccc2cn[nH]c12)C1CCN(C(=O)Oc2ccccc2)CC1` [Example 109, (R)-phenyl 4-(1-(1H-indazole-7-carboxamido)-3-methylbutyl)piperidine-1-carboxylate], the IC50 was 6.31 nM.

For `Cc1c(F)cccc1OC(=O)N1CCC([C@@H](C)NC(=O)c2ccc(Cl)s2)CC1` [Example 36, 3-fluoro-2-methylphenyl 4-[(1R)-1-[(5-chlorothiophen-2-yl)formamido]ethyl]piperidine-1-carboxylate], the IC50 was 6.31 nM.

As for `CC(C)CC(NC(=O)c1ccc(F)cc1)C1CCN(C(=O)OC2CCNc3ccccc32)CC1` (stereo not drawn) [Example 84, 1,2,3,4-tetrahydroquinolin-4-yl 4-{1-[(4-fluorophenyl)formamido]-3-methylbutyl}piperidine-1-carboxylate], the IC50 was 501 nM.

In the case of `CC(C)(C)OC(=O)N1CCC(C(NC(=O)c2ccccc2)c2ccccc2)CC1` (stereo not drawn) [Example 98, tert-butyl 4-[phenyl(phenylformamido)methyl]piperidine-1-carboxylate], the IC50 was 1580 nM.

For `COc1ccc([C@@H](NC(=O)c2ccc(Cl)cc2)C2CCN(C(=O)Oc3ccccc3)CC2)cn1` [Example 111, (S)-phenyl 4-((4-chlorobenzamido)(6-methoxypyridin-3-yl)methyl)piperidine-1-carboxylate], the IC50 was 63.1 nM.

As to `CC(C)CC(NC(=O)c1cccc2cn[nH]c12)C1CCN(C(=O)Oc2ccccc2)CC1` (stereo not drawn) [Example 110, phenyl 4-(1-(1H-indazole-7-carboxamido)-3-methylbutyl)piperidine-1-carboxylate], the IC50 was 12.6 nM.

Consider `O=C(NC(C1CC1)C1CCN(C(=O)Oc2ccncc2)CC1)c1ccc(F)cc1` (stereo not drawn) [Example 81, pyridin-4-yl 4-{cyclopropyl[(4-fluorophenyl)formamido]methyl}piperidine-1-carboxylate], for which the IC50 is 398 nM.

In the case of `CC(C)CC(NC(=O)c1nnc(Cl)s1)C1CCN(C(=O)Oc2ccccc2)CC1` (stereo not drawn) [Example 83, phenyl 4-{1-[(5-chloro-1,3,4-thiadiazol-2-yl)formamido]-3-methylbutyl}piperidine-1-carboxylate], the IC50 was 501 nM.

For the compound `O=C(NC(C1CC1)C1CCN(C(=O)Oc2cncnc2)CC1)c1ccc(Cl)s1` (stereo in doubt) [Example 115, (S)-pyrimidin-5-yl 4-((5-chlorothiophene-2-carboxamido)(cyclopropyl)methyl)piperidine-1-carboxylate], the IC50 is 50.1 nM.

On to `Cc1c(F)cccc1OC(=O)N1CCC([C@@H](CCCO)NC(=O)c2ccc(F)cc2)CC1` [Example 80, 3-fluoro-2-methylphenyl 4-[(1R)-1-[(4-fluorophenyl)formamido]-4-hydroxybutyl]piperidine-1-carboxylate], for which the IC50 was 316 nM.

In the case of `CC(NC(=O)c1ccc(Cl)s1)C1CCN(C(=O)Oc2ccccc2)CC1` (stereo not drawn) [Example 52, phenyl 4-{1-[(5-chlorothiophen-2-yl)formamido]ethyl}piperidine-1-carboxylate], the IC50 was 15.8 nM.
